Test results as given in patent US12391687B2, “Five-and-six-membered heterocyclic compound and use thereof as protein receptor kinase inhibitor” (SHANGHAI ENNOVABIO PHARMACEUTICALS CO., LTD., priority 2018, dated 2025).

Assays:
[1] = molecular target: Recombinant human TRKA (Homo sapiens (Human), UniProt P04629); assay: In vitro activity test on TRKA kinase (HTRF kinEASE TK); format: biochemical; details: 14.68 μM ATP, 40 min, room temperature
[2] = tested on: KM12-LUC cells; assay: KM12-LUC cell proliferation experiment (CellTiter-Glo); format: cell-based; details: human colon cancer cell line with TPM3-NTRK1 fusion, 72 hours
Procedure: Human colon cancer cell line KM12-LUC (LUC, stably expressing Luciferase) expressing TPM3-NTRK1 fusion gene was used to evaluate cellular activity of the compounds. The TRK fusion gene in KM12-LUC cells makes the sustained activation of TRK and the downstream signaling pathways associated with cell proliferation such as MAPK-ERK, PI3K-AKT, etc independent of the stimulation of extracellular growth factor. […] The method was as follows: On the first day, the cells were seeded into 384-well plates at 2000 cells/well; on the second day, different concentrations of test compounds were added; and on the 5th day, CellTiter-Glo (Promega) was added to detect cell viability, and the cell proliferation inhibition rate at 72 hours was calculated. Statistical analysis was carried out by PRISM5 and the IC50 of the test compounds was calculated.

[3] = molecular target: recombinant human TRKA (G595R) (Homo sapiens (Human), UniProt P04629, G595R); assay: In vitro activity test on mutant TRKA (G595R) (HTRF kinEASE TK); format: biochemical; details: 4.5 μM ATP, 30 min, room temperature; read-out: TRKA (G595R) IC 50
Sequence of recombinant human TRKA (G595R) (P04629 33-796 G595R): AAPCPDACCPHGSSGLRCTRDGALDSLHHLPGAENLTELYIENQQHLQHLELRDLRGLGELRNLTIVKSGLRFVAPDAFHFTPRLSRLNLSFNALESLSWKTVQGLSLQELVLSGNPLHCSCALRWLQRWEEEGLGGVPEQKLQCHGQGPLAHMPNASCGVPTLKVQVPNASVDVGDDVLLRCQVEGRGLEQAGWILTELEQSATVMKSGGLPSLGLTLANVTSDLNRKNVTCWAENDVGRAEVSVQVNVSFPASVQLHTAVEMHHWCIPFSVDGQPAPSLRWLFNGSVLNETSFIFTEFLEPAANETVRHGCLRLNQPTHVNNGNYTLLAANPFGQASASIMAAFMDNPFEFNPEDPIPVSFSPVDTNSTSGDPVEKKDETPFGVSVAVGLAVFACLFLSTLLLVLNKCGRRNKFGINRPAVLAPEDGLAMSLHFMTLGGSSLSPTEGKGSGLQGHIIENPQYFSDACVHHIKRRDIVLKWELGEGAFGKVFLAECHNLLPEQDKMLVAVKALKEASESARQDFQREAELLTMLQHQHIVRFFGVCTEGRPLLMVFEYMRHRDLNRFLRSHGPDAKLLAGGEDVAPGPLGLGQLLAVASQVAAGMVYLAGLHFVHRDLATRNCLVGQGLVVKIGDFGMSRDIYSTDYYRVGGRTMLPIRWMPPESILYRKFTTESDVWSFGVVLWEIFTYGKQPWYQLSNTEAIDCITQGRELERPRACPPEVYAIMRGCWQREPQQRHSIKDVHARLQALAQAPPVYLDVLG
Procedure: The recombinant human TRKA (G595R), TRKA (G667C) and TRKC (G623R) proteins were purchased from SignalChem. HTRF kinEASE TK kit was purchased from Cisbio Bioassays. Synergy Neo 2 of Biotek was used to read the plate.
The tested compounds were subjected to 4-fold serial dilution to reach a final concentration of 1 μM to 0.004 nM (10 concentrates), duplicates for each concentration; and the final concentration of DMSO in the reaction was 1%.
0.12 ng/μL TRKA (G595R) kinase, 1 μM TK Substrate-biotin polypeptide substrate, 4.5 μM ATP, 1× enzymatic buffer, 5 mM MgCl2, and 1 mM DTT. The assay plate was White Proxiplate384-Plus plate (PerkinElmer), and the reaction was incubated at room temperature for 30 min, and the assay volume was 10 μL.
10 μL of detection reagent (containing 0.125 μM SA-XL665 and 5 μL 1×TK-Antibody) was added to the plate and incubated overnight at room temperature, and Synergy Neo 2 was used to read the plate.
The value of 665/620 Ratio minus the value of negative control wells without enzyme, then the obtained value was converted according to the following formula into inhibition rate (%)=(1−Ratiotest/Ratiomax)×100%. Ratiomax was the value of positive controls without tested compound, and Ratiotest was the value of each concentration of different compounds. IC50 (nM) data was obtained by 4 parameter curve fitting (see Table 3).

[4] = molecular target: Recombinant human TRKC (Homo sapiens (Human), UniProt Q16288); assay: In vitro activity test on TRKC kinase (HTRF kinEASE TK); format: biochemical; details: 25.64 μM ATP, 40 min, room temperature
Sequence of Recombinant human TRKC (Q16288 32-839): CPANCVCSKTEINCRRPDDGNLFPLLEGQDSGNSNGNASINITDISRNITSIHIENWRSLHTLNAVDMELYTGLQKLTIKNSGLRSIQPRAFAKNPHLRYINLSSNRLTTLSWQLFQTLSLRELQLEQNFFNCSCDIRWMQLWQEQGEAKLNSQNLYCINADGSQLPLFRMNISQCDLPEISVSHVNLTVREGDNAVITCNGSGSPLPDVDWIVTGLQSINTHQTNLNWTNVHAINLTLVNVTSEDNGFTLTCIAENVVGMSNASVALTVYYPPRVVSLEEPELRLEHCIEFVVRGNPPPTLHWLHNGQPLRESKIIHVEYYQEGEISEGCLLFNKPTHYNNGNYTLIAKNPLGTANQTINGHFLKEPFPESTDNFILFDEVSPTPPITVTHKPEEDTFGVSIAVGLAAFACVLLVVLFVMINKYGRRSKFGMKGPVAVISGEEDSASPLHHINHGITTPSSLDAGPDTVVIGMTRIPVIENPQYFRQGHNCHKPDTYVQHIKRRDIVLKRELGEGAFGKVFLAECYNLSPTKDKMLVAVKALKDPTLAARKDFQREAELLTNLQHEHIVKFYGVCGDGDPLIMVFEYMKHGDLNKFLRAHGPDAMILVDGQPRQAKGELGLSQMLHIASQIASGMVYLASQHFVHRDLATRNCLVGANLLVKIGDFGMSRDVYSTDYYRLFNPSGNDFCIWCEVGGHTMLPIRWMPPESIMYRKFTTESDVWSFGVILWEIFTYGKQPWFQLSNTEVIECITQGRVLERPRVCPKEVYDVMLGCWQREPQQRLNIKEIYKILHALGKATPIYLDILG

[5] = molecular target: Recombinant human TRKB (Homo sapiens (Human), UniProt Q16620); assay: In vitro activity test on TRKB kinase (HTRF kinEASE TK); format: biochemical; details: 4.77 μM ATP, 50 min, room temperature
Sequence of Recombinant human TRKB (Q16620 32-822): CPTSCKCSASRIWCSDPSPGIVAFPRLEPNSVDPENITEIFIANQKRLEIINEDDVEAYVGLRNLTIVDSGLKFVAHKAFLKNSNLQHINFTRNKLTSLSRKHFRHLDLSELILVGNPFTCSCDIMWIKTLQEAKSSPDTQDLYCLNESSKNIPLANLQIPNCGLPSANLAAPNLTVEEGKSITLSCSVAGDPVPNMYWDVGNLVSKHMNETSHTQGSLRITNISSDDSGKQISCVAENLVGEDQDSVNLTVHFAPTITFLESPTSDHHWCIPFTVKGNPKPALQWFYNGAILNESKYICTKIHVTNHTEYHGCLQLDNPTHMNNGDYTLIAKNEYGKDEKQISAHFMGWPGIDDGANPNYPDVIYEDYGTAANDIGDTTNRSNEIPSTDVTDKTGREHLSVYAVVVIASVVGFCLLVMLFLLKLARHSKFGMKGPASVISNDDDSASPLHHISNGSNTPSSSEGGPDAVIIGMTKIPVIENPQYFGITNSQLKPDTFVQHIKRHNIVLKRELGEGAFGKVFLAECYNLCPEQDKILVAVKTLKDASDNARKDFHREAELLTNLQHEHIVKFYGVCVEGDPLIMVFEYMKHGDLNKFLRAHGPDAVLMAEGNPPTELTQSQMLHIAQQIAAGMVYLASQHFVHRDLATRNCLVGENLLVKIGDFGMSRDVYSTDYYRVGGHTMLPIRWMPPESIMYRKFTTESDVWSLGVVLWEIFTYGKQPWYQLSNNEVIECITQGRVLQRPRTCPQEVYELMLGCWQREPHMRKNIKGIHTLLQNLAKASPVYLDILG

Sequence of Recombinant human TRKA (P04629 33-796): as the sequence (P04629 33-796 G595R) above, with R563G counted along it

## COCc1nnc(-c2cnc3[nH]nc(N4C[C@@H](F)C[C@@H]4c4cc(F)ccc4F)c3c2)o1 [Example 37, 2-(3-((2R,4S)-2-(2,5-difluorophenyl)-4-fluoropyrrolidin-1-yl)-1H-pyrazolo[3,4-b]pyridin-5-yl)-5-(methoxymethyl)-1,3,4-oxadiazole]
[1]
  IC50: < 1 nM
[2]
  IC50: < 10 nM
[3]
  IC50: < 1 nM
[4]
  IC50: < 1 nM
[5]
  IC50: < 1 nM
